According to US20170283862A1, “GENETIC TESTING FOR PREDICTING RESISTANCE OF KLEBSIELLA SPECIES AGAINST ANTIMICROBIAL AGENTS” (priority 2014, published 2017):

Test system: K. pneumoniae isolates
Assay: Gene dosage effects: AUC of normalized median coverage per gene, resistant vs susceptible isolates
Set-up: unit not given here
Details: best MIC break
Experimental: Since a potential reason for drug resistance is gene duplication, gene dose dependency was evaluated. For each sample the genomic coverage for each position was determined using BED Tools. Gene ranges were extracted from the reference assemblies NC_009648.gff and NC_016612.gff and the normalized median coverage per gene was calculated. To compare low- and high-resistance isolates the best area under the curve (AUC) value was computed.
To estimate the difference in coverage we calculated AUC values for the normalized median coverage per gene in the two groups.

[1] = gene KPN_00957: 1081235-1081342
[2] = gene KPN_01607: 1784144-1785004
[3] = gene KPN_01784: 1966562-1967182
[4] = gene KPN_02272: 2484450-2485832
[5] = gene KPN_03336: 3652949-3653470
[6] = gene KPN_04541: 4973659-4974345
[7] = gene KPN_01776: 1957110-1958672
[8] = gene KPN_01790: 1972135-1973631

**Q.** Which results are given for `CC1(C)S[C@@H]2[C@H](NC(=O)[C@H](N)c3ccccc3)C(=O)N2[C@H]1C(=O)O` [Ampicillin]?
**A.** BEST_BREAK [1]: 128.1; BEST_BREAK [2]: 128.1

**Q.** With Amoxicillin/K Clavulanate as the compound, how does the BEST_BREAK [1] read?
**A.** The BEST_BREAK was 64.

**Q.** What about the BEST_BREAK [2] of the same compound?
**A.** Its BEST_BREAK is 8.

**Q.** And the BEST_BREAK [3]?
**A.** Its BEST_BREAK is 32.

**Q.** What about the BEST_BREAK [4] of the same compound?
**A.** Its BEST_BREAK is 64.

**Q.** And the BEST_BREAK [5]?
**A.** Its BEST_BREAK is 32.

**Q.** And the BEST_BREAK (gene KPN_04540: 4971080-4973572)?
**A.** The BEST_BREAK was 32.

**Q.** What about the BEST_BREAK [6] of the same compound?
**A.** Its BEST_BREAK is 32.

**Q.** What about the BEST_BREAK (gene rmlC: 2715683-2716237) of the same compound?
**A.** Its BEST_BREAK is 64.1.

**Q.** What about the BEST_BREAK (gene rmlC: 2723257-2723811) of the same compound?
**A.** Its BEST_BREAK is 64.1.

**Q.** What about the BEST_BREAK (gene ygbI: 1783401-1784123) of the same compound?
**A.** Its BEST_BREAK is 8.

**Q.** Ampicillin/Sulbactam was tested. Which BEST_BREAK [1] did it give?
**A.** Its BEST_BREAK is 32.

**Q.** And the BEST_BREAK [2]?
**A.** The BEST_BREAK was 64.1.

**Q.** What about the BEST_BREAK [7] of the same compound?
**A.** Its BEST_BREAK is 64.1.

**Q.** What about the BEST_BREAK [3] of the same compound?
**A.** Its BEST_BREAK is 64.1.

**Q.** What about the BEST_BREAK [8] of the same compound?
**A.** Its BEST_BREAK is 64.1.

**Q.** And the BEST_BREAK [6]?
**A.** Its BEST_BREAK is 64.1.

**Q.** What about the BEST_BREAK (gene rmlC: 2723257-2723811) of the same compound?
**A.** Its BEST_BREAK is 64.1.

**Q.** And the BEST_BREAK (gene ygbI: 1783401-1784123)?
**A.** The BEST_BREAK was 64.1.

**Q.** What about the BEST_BREAK (gene ygbJ: 1782199-1783101) of the same compound?
**A.** The BEST_BREAK was 64.1.

**Q.** What about the BEST_BREAK (gene ygbK: 1780922-1782187) of the same compound?
**A.** Its BEST_BREAK is 64.1.

**Q.** Which results are given for Gentamicin?
**A.** BEST_BREAK (gene KPN_00596: 673027-673989): 2; BEST_BREAK [1]: 1; BEST_BREAK [2]: 1; BEST_BREAK [7]: 1; BEST_BREAK [3]: 1

**Q.** Piperacillin/Tazobactam was tested. Which BEST_BREAK [1] did it give?
**A.** Its BEST_BREAK is 8.

**Q.** And the BEST_BREAK [2]?
**A.** Its BEST_BREAK is 128.

**Q.** What about the BEST_BREAK (gene KPN_01766: 1947966-1948751) of the same compound?
**A.** The BEST_BREAK was 128.

**Q.** What about the BEST_BREAK (gene KPN_01767: 1948966-1949805) of the same compound?
**A.** Its BEST_BREAK is 128.

**Q.** What about the BEST_BREAK (gene KPN_01772: 1953630-1954052) of the same compound?
**A.** Its BEST_BREAK is 128.

**Q.** And the BEST_BREAK (gene KPN_01773: 1954090-1955208)?
**A.** Its BEST_BREAK is 64.

**Q.** What about the BEST_BREAK [7] of the same compound?
**A.** The BEST_BREAK was 128.

**Q.** What about the BEST_BREAK [3] of the same compound?
**A.** Its BEST_BREAK is 128.

**Q.** What about the BEST_BREAK [8] of the same compound?
**A.** Its BEST_BREAK is 128.

**Q.** What about the BEST_BREAK [4] of the same compound?
**A.** The BEST_BREAK was 256.1.

**Q.** And the BEST_BREAK [5]?
**A.** The BEST_BREAK was 256.

**Q.** What about the BEST_BREAK [6] of the same compound?
**A.** The BEST_BREAK was 64.

**Q.** And the BEST_BREAK (gene rmlC: 2723257-2723811)?
**A.** Its BEST_BREAK is 256.1.

**Q.** What about the BEST_BREAK (gene stbA: 300128-300664) of the same compound?
**A.** Its BEST_BREAK is 128.

**Q.** What about the BEST_BREAK (gene ygbI: 1783401-1784123) of the same compound?
**A.** The BEST_BREAK was 128.

**Q.** What about the BEST_BREAK (gene ygbJ: 1782199-1783101) of the same compound?
**A.** Its BEST_BREAK is 128.

**Q.** What about the BEST_BREAK (gene ygbK: 1780922-1782187) of the same compound?
**A.** The BEST_BREAK was 128.
